Among the data in patent US12180226B2, “Spirotricycle RIPK1 inhibitors and methods of uses thereof” (Merck Sharp & Dohme LLC, priority 2021, dated 2024) are EC50 values, retold here.

This test addresses RIPK1 (recombinant GST-RIPK1 kinase domain, residues 1-327) (Homo sapiens (Human), UniProt Q13546). Description: RIPK1-ADP-Glo Enzymatic Assay. Type of test: biochemical. As to conditions: ADP-Glo; 25 nM GST-RIPK1, 300 μM ATP; assay lower limit ~25 nM; read-out: RIPK1 V0 Ec50. The procedure, abridged:
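Enzyme from baculovirus-infected Sf21 cells, 25 nM final, was pre-incubated 30 min at ambient temperature with compound (ten-point, 1:3 dilution from 100000 nM, 1% DMSO), then reacted 150 min with 300 μM ATP and 3 μM dephosphorylated MBP. ADP was read by luminescence; EC50 from four-parameter fit.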
A general note: ADP-Glo turns the ADP formed in a reaction into a luminescent signal.

Structures can show the parent of a compound that is named as a salt. A value given as a limit tells only on which side of the number the result lay.

Sequence of RIPK1 (recombinant GST-RIPK1 kinase domain, residues 1-327) (Q13546 1-327): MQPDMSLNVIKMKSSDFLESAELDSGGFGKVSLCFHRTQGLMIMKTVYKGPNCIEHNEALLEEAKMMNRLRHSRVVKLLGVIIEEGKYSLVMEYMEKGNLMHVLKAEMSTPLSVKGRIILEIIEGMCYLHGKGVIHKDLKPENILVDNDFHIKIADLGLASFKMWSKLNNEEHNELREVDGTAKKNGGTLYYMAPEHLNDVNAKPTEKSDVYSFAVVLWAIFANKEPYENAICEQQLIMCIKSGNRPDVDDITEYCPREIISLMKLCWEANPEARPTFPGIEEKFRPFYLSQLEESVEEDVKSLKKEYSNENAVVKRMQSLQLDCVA

The EC50 is the midpoint of the concentration-response curve. Consider `O=C(c1nsnc1Cl)N1CCC2(CC1)O[C@@H]1CC[C@@H](c3cc(F)cc(F)c3)N1C2=O` [Example 6.19, (5′S,7a′R)-1-(4-chloro-1,2,5-thiadi-azole-3-carbonyl)-5′-(3,5-difluorophenyl)-tetrahydro-3′H-spiro [piperidine-4,2′-pyrrolo[2,1-b][1,3]oxazol]-3′-one], for which the EC50 was under 25 nM. With `N#Cc1ccc(F)c([C@@H]2CC[C@H]3OC4(CCN(c5ccnc6c(F)cnn56)CC4)C(=O)N32)c1` [Example 20.4, 4-fluoro-3-[(5′S,7a′R)-1-(3-fluoropyrazolo[1,5-a]pyrimidin-7-yl)-3′-oxotetrahydro-3′H-spiro[piperidine-4,2′-pyrrolo[2,1-b][1,3]oxazol]-5′-yl]benzonitrile], the concentration for a half-maximal effect (EC50) is under 25 nM.

On to `O=C(c1ccccc1)N1CCC2(CC1)O[C@@H]1CC[C@@H](c3ccccc3)N1C2=O` [Example 1.3, (5′S,7a′R)-1-(benzenecarbonyl)-5′-phenyltetrahydro-3′H-spiro[piperidine-4,2′-pyrrolo[2,1-b] [1,3]oxazol]-3′-one], for which the concentration giving a half-maximal response (EC50) was under 25 nM. `O=C(c1c(F)cccc1F)N1CCC2(CC1)O[C@@H]1CC[C@@H](c3cc(F)cc(F)c3)N1C2=O` [Example 5.56, (5′S,7a′R)-1-(2,6-difluoro-benzoyl)-5′-(3,5-difluoro-phenyl)tetrahydro-3′H-spiro[piperidine-4,2′-pyrrolo[2,1-b]oxazol]-3'-one]: the half-maximal effective concentration (EC50) was under 25 nM. The value for `N#CC1(c2cccc(C(=O)N3CCC4(CC3)O[C@@H]3CC[C@@H](c5cc(F)cc(F)c5)N3C4=O)c2)CC1` [Example 6.71, 1-{3-[(5′S,7a′R)-5′-(3,5-difluorophenyl)-3′-oxotetrahydro-1H,3′H-spiro[piperi-dine-4,2′-pyrrolo-[2,1-b][1,3]oxazole]-1-carbonyl]phenyl} cyclopropane-1-car-bonitrile] was under 25 nM; that for `O=C(c1cc(F)ccc1F)N1CC2(C1)O[C@@H]1CC[C@@H](c3ccccc3F)N1C2=O` [Example 1.18, (5′S,7a′R)-1-(2,5-difluorobenzoyl)-5′-(2-fluorophenyl)tetrahydro-3′H-spiro[azetidine-3,2′-pyrrolo[2,1-b]oxazol]-3′-one] was 39 nM.

For the molecule `COC(=O)c1cnc(N2CCC3(CC2)O[C@@H]2CC[C@@H](c4ccccc4)N2C3=O)cc1Cl` [Example 4.211, methyl 4-chloro-6-[(5′S,7a′R)-3′-oxo-5′-phenyltetrahydro-1H,3′H-spiro[piperidine-4,2′-pyrrolo[2,1-b] [1,3]oxazol]-1-yl]pyridine-3-carboxylate], the concentration for a half-maximal effect (EC50) is under 25 nM. As for `CCOC(=O)c1cc(N2CCC3(CC2)O[C@@H]2CC[C@@H](c4ccccc4)N2C3=O)ncn1` [Example 4.23, ethyl 6-[(5′S,7a′R)-3′-oxo-5′-phenyltetrahydro-1H,3′H-spiro[piperidine-4,2′-pyrrolo[2,1-b] [1,3]oxazol]-1-yl]pyrimidine-4-carboxylate], the figure is 52.8 nM; as for `CC1CN(c2ncnc3ccnn23)CCC12O[C@@H]1CC[C@@H](c3cc(F)cc(F)c3)N1C2=O` (stereo partly drawn) [Example 4.264, (5′S,7a′R)-5′-(3,5-difluorophenyl)-3-methyl-1-(pyrazolo[1,5-a] [1,3,5]triazin-4-yl)tetrahydro-3′H-spiro[piperidine-4,2′-pyrrolo[2,1-b] [1,3]oxazol]-3′-one], under 25 nM; as for `CC(C)c1oncc1C(=O)N1CCC2(CC1)O[C@@H]1CC[C@@H](c3cc(F)cc(F)c3)N1C2=O` [Example 6.49, (5′S,7a′R)-5′-(3,5-difluorophenyl)-1-[5-(propan-2-yl)-1,2-oxazole-4-carbonyl]-tetrahydro-3′H-spiro [piperidine-4,2′-pyrrolo[2,1-b][1,3]-oxazol]-3′-one], 989 nM.

Regarding `O=C1N2[C@@H](CC[C@H]2c2ccccc2)SC12CCN(c1ccnc3ccnn13)CC2` [Example 4.116, (5′S,7a′R)-5′-phenyl-1-(pyrazolo[1,5-a]pyrimidin-7-yl)tetrahydro-3′H-spiro[piperidine-4,2′-pyrrolo[2,1-b]thiazol]-3′-one], the 50% effective concentration (EC50) was under 25 nM. In the case of `N#Cc1ccc(N2CCC3(CC2)O[C@@H]2CC[C@@H](c4cccc(F)c4)N2C3=O)n2nccc12` [Example 4.157, 7-[(5′S,7a′R)-5′-(3-fluorophenyl)-3′-oxotetrahydro-1H,3′H-spiro[piperidine-4,2′-pyrrolo[2,1-b] [1,3]oxazol]-1-yl]pyrazolo[1,5-a] pyridine-4-carbonitrile], the EC50 is under 25 nM. As for `O=C1N2[C@@H](CC[C@H]2c2ccccc2)OC12CN(c1ccnc3c(F)cnn13)C2` [Example 4.96, (5′S,7a′R)-1-(3-fluoropyrazolo[1,5-a]pyrimidin-7-yl)-5′-phenyltetrahydro-3′H-spiro[azetidine-3,2′-pyrrolo[2,1-b]oxazol]-3′-one, TFA salt], the EC50 was under 25 nM. For `N#CC1(NC(=O)c2nc(N3CCC4(CC3)O[C@@H]3CC[C@@H](c5cc(F)cc(F)c5)N3C4=O)ncc2F)CCC1` [Example 7.13, N-(1-cyanocyclobutyl)-2-[(5′S,7a′R)-5′-(3,5-difluorophenyl)-3′-oxotetrahydro-1H,3′H-spiro[piperidine-4,2′-pyrrolo[2,1-b][1,3]oxazol]-1-yl]-5-fluoropyrimidine-4-carboxamide], the EC50 amounted to 191 nM. For `Cc1nc(N2CCC3(CC2)O[C@@H]2CC[C@@H](c4ccccc4)N2C3=O)ncc1-c1ccnn1C` [Example 21.8, (5′S,7a′R)-1-[4-methyl-5-(1-methyl-1H-pyrazol-5-yl)pyrimidin-2-yl]-5′-phenyltetrahydro-3′H-spiro[piperidine-4,2′-pyrrolo[2,1-b][1,3]oxazol]-3′-one], the EC50 came to 36.6 nM. Take `Cc1nc(N2CCC3(CC2)OC2CCC(c4cnccn4)N2C3=O)ccc1C#N` (stereo not drawn) [Example 4.142, 2-methyl-6-[3′-oxo-5′-(pyrazin-2-yl)tetrahydro-1H,3′H-spiro[piperidine-4,2′-pyrrolo[2,1-b] [1,3]oxazol]-1-yl]pyridine-3-carbonitrile]: the half-maximal effective concentration (EC50) was under 25 nM. As for `CCOc1cnc(N2CCC3(CC2)O[C@@H]2CC[C@@H](c4cc(F)cc(F)c4)N2C3=O)nc1` [Example 4.57, (5′S,7a′R)-5′-(3,5-difluorophenyl)-1-(5-ethoxypyrimidin-2-yl)tetrahydro-3′H-spiro[piperidine-4,2′-pyrrolo[2,1-b] [1,3]oxazol]-3′-one], the figure is 243 nM. Regarding `O=C(c1cocn1)N1CCC2(CC1)O[C@@H]1CC[C@@H](c3cc(F)cc(F)c3)N1C2=O` [Example 5.30, (5′S,7a′R)-5′-(3,5-difluoro-phenyl)-1-(1-oxazole-4-carbonyl)tetrahydro-3′H-spiro[piperidine-4,2′-pyrrolo[2,1-b]oxazol]-3′-one], the EC50 turned out to be 28.4 nM. For the molecule `Cn1cc([C@@H]2CC[C@H]3OC4(CCN(c5ccc(C#N)c6ncnn56)CC4)C(=O)N32)cn1` [Example 20.1, 5-((5′S,7a′R)-5′-(1-Methyl-1H-pyrazol-4-yl)-3′-oxotetrahydro-3′H-spiro[piperidine-4,2′-pyrrolo[2,1-b]oxazol]-1-yl)-[1,2,4]triazolo[1,5-a]pyridine-8-carbonitrile], the EC50 worked out at 45.4 nM. `N#Cc1cnc(N2CCC3(CC2)O[C@@H]2CC[C@@H](c4ccccc4F)N2C3=O)nc1` [Example 4.106, 2-((5′S,7a′R)-5′-(2-fluorophenyl)-3′-oxotetrahydro-3′H-spiro[piperidine-4,2′-pyrrolo[2,1-b]oxazol]-1-yl)pyrimidine-5-carbonitrile]: the EC50 amounted to 30.5 nM. As for `O=C1N2[C@@H](CC[C@H]2c2ccccc2)OC12CCN(c1ncc(-c3nccs3)cn1)CC2` [Example 21.12, (5′S,7a′R)-5′-phenyl-1-[5-(1,3-thiazol-2-yl)pyrimidin-2-yl]tetrahydro-3′H-spiro[piperidine-4,2′-pyrrolo[2,1-b][1,3]oxazol]-3′-one], the figure is 25.2 nM.

Turning to `O=C(c1cscn1)N1CCC2(CC1)O[C@@H]1CC[C@@H](c3cc(F)cc(F)c3)N1C2=O` [Example 5.44], the EC50 is 33.1 nM. Consider `O=C(c1ccccc1)N1CC2(C1)S[C@@H]1CC[C@@H](c3cc(F)cc(F)c3)N1C2=O` [Example 1.25, (5′S,7a′R)-1-benzoyl-5′-(3,5-difluorophenyl)tetrahydro-3′H-spiro[azetidine-3,2′-pyrrolo[2,1-b]thiazol]-3′-one], for which the 50% effective concentration (EC50) is 98.3 nM. In the case of `O=C1N2[C@@H](CC[C@H]2c2cc(F)cc(F)c2)OC12CCN(C(c1ccccc1)C(F)F)CC2` (single isomer, unassigned) [Example 22.2, (5′S,7a′R)-1-(2,2-Difluoro-1-phenylethyl)-5′-(3,5-difluorophenyl)tetrahydro-3′H-spiro[piperidine-4,2′-pyrrolo[2,1-b]oxazol]-3′-one], the EC50 came out at 243 nM.

Turning to `O=C(c1ccc2nscc2c1)N1CCC2(CC1)O[C@@H]1CC[C@@H](c3cc(F)cc(F)c3)N1C2=O` [Example 6.42, (5′S,7a′R)-1-(2,1-benzothiazole-5-carbonyl)-5′-(3,5-difluorophenyl)tetra-hydro-3′H-spiro [piperidine-4,2′-pyrrolo[2,1-b][1,3]oxazol]-3′-one], the EC50 is under 25 nM. Turning to `O=C1N2[C@@H](CC[C@H]2c2ccccc2)OC12CCN(c1nnc(C(F)(F)F)s1)CC2` [Example 11.27, (5′S,7a′R)-5′-phenyl-1-[5-(trifluoromethyl)-1,3,4-thiadiazol-2-yl]tetrahydro-3′H-spiro[piperidine-4,2′-pyrrolo[2,1-b][1,3]oxazol]-3′-one], the EC50 was 757 nM. As for `O=C1N2[C@@H](CC[C@H]2c2ccccc2)OC12CCN(c1cccc3ncnn13)CC2` [Example 13.1, (5′S,7a′R)-1-([1,2,4]Triazolo[1,5-a]pyridin-5-yl)-5′-phenyltetrahydro-3′H-spiro[piperidine-4,2′-pyrrolo[2,1-b]oxazol]-3′-one, TFA], the EC50 amounted to 26.8 nM.
